Common to all, as to assay: growth of human tumour cells (NCI), 48 h
For assay [1], the system named is DU-145 prostate.
The test system of assay [2] is OVCAR-4 ovarian.
Assay [3] concerns MCF7 breast.
In assay [4] the test system is T-47D breast.
In assay [5] the test system is CAKI-1 renal.
The subject of assay [6] is SR leukemia.
The test system of assay [7] is 786-0 renal.
Assay [8] relates to RXF 393 renal.
Assay [9] has as its system SF-295 CNS.
Assay [10] relates to SK-MEL-2 melanoma.

“And” between values parts separate entries of the source, which are not always exact repeats. Equal values may be shown once.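 Where inhibition never reached the appropriate level, the endpoint shown equals the highest concentration tested. Otherwise, values were interpolated linearly from a five-concentration, 48-hour dose response in 96-well plates. The concentration for 50% growth inhibition is given as GI50. TGI: concentration producing complete growth inhibition.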

For `CNCCNc1nc2ccccc2c2c(=O)c3cccc(C)c3sc12`, the GI50 in [1] was 1.89 µM; in [2], 2.1 µM; in [3], 0.793 µM; in [4], 0.876 µM; in [5] it was 1.16 µM; in assay [6] it was 0.94 µM. The GI50 in assay [7] is 4.07 µM; in assay [8] it was 3.08 µM; in [9], 5.54 µM; in assay [10], 1.28 µM. In addition, the TGI in [1] was 6.52 µM; in assay [2], 8.75 µM; in [3], 1.82 µM; in assay [4], 2.25 µM; in [5] it was 6.73 µM; in assay [6], 2.51 µM. The TGI was 11.5 µM in [7], 9.72 µM in assay [8], 12.1 µM in assay [9] and 3.36 µM in assay [10].

As to `N#Cc1c(N)c(C#N)c2c(c1-c1ccc(Cl)cc1)COc1ccc(F)cc1-2`, the GI50 is 14.7 µM in assay [1]; > 50 µM in [2]; 16.5 µM in [3]; > 50 µM in assay [4]; 21 µM in assay [5]; > 50 µM in assay [6]. Moreover, the GI50 in assay [7] is 20 µM; in assay [8] it was > 50 µM; in assay [9] it was 13.5 µM; in assay [10], > 50 µM. The TGI in assay [1], in assay [2], in [3], in assay [4], in assay [5] and in [6] was > 50 µM each time. Besides, the TGI in [7], in assay [8], in [9] and in [10] was > 50 µM throughout.

With `O=C1C(Br)=CC2(C=C1Br)CCNc1c(O)c3c4c(c12)=NCCC=4C=N3`, the TGI came to 1.49 µM in assay [1]; 0.211 µM in [2]; 0.0745 µM in [3]; 0.165 µM in assay [4]; 0.309 µM in assay [5]; 0.117 µM in assay [6]. Besides, the TGI in assay [7] was determined as 0.272 µM; in assay [8], 0.217 µM; in assay [9] it was 2.56 µM; in assay [10] it was 0.428 µM.

Regarding `COc1ccc(/C=C2\CCC(Cc3ccccc3)(CN(C)C)C2=O)cc1` (stereo not drawn), the TGI is > 100 µM in assay [1]; > 100 µM in [2]; > 100 µM in assay [3]; > 100 µM in assay [4]; > 100 µM in assay [5]; 54 µM in assay [6]. For the same molecule, the TGI in assay [7] is > 100 µM; in assay [8], > 72.9 µM; in [9], > 100 µM; in assay [10], > 100 µM.

Consider `O=C(/C=C/c1ccccc1)OCC1=C[C@@H](O)[C@@H]2C=CO[C@@H](OC3OC(CO)C(O)C(O)C3O)[C@H]12` (stereo partly drawn), for which the TGI in [1], in assay [2], in assay [3], in [4], in [5] and in assay [6] was > 100 µM in each case. For the same molecule, the TGI in assay [7], in [8], in [9] and in [10] was > 100 µM each time.

With `O=c1[nH]c(SCc2ccccc2[N+](=O)[O-])nc2nc[nH]c12`, the TGI in assay [1], in assay [2], in [3], in [4], in [5] and in assay [6] was > 100 µM in each case. Further, the TGI in assay [7], in assay [8], in assay [9] and in [10] was > 100 µM throughout. In assay [2], the GI50 is 30.3 µM and > 100 µM.

For the molecule `COC(=O)[C@]12CC[C@@H](C)[C@H](C)[C@@H]1C1=CC[C@@H]3[C@@]4(C)CC(=O)[C@H](O)[C@@](C)(CO)[C@@H]4C(=O)C[C@@]3(C)[C@]1(C)CC2`, the GI50 in [1] is 11.2 µM; in [2] it was 11 µM; in assay [3], 12.1 µM; in [4], 2.44 µM; in assay [5], 11.5 µM; in assay [6], 5.95 µM. For the same molecule, the GI50 is 12.4 µM in assay [7], 13.8 µM in assay [8], 10.6 µM in assay [9] and 14.5 µM in assay [10]. For the same molecule, the TGI was found to be 23.6 µM in [1]; 25.1 µM in assay [2]; 27.5 µM in assay [3]; 26.4 µM in [4]; 24 µM in [5]; 27.1 µM in assay [6]. Moreover, the TGI in [7] is 25.4 µM; in assay [8], 28.6 µM; in assay [9], 23.3 µM; in assay [10], 29.4 µM.

In the case of `Oc1cccc(-c2nc(-c3ccccc3)[nH]c2-c2ccncc2)c1`, the GI50 in assay [1] was 16.3 µM; in assay [2], 10.5 µM; in assay [3], 12.8 µM; in assay [4], 9.31 µM; in assay [5], 18.7 µM; in assay [6] it was 11.3 µM. Further, the GI50 in [7] was 9.11 µM; in [8], 5 µM; in [9] it was 14.7 µM; in assay [10], 6.91 µM. Further, the TGI is > 25 µM in [1]; > 25 µM in assay [2]; > 25 µM in assay [3]; 24.3 µM in [4]; > 25 µM in assay [5]; > 25 µM in [6]. For the same molecule, the TGI is > 25 µM in [7], 14.7 µM in assay [8], > 25 µM in assay [9] and 18.9 µM in assay [10].

Take `Fc1ccc(C2C3CCOc4c(ccc5ccccc45)C3=NN2c2ccccc2)cc1` (stereo not drawn): the GI50 in assay [1] was > 100 µM; in assay [2], > 100 µM; in assay [3] it was > 85.4 µM; in assay [4], 25.4 µM; in [5], 64.2 µM; in assay [6], 13.3 µM. Besides, the GI50 in assay [7] was > 100 µM; in [8], > 63.6 µM; in assay [9], 20.7 µM; in assay [10], > 100 µM. The TGI is > 100 µM in assay [1]; > 100 µM in assay [2]; > 100 µM in [3]; > 94.8 µM in assay [4]; > 100 µM in [5]; > 100 µM in [6]. Besides, the TGI in assay [7], in [8], in [9] and in assay [10] was > 100 µM each time.

In the case of `Cc1cn2c(/C=C3/C(=O)Nc4ccc(Cl)cc43)c(C)nc2s1`, the GI50 in assay [1] is 0.84 µM; in assay [2], > 39.3 µM; in assay [3], 1.57 µM; in [4], 4.09 µM; in [5], 0.741 µM; in assay [7] it was < 0.0403 µM. Besides, the GI50 in assay [8] was 6.74 µM; in assay [9], 0.871 µM; in assay [10] it was 21.4 µM. In addition, the TGI in assay [1] was > 39.3 µM; in assay [2], > 54 µM; in [3], > 100 µM; in [4], > 75 µM; in assay [6] it was > 100 µM; in assay [7] it was 31.1 µM. In addition, the results for the TGI in assay [8], in assay [9] and in assay [10] were > 100 µM, 2.65 µM and > 100 µM, respectively.

On to `CC12CC(=O)C3C(CCC4=CC(=O)CCC43C)C1CC=C2CC(=O)O` (stereo not drawn), for which the TGI in [1], in [2], in [3], in [4], in assay [5] and in assay [6] was > 100 µM in each case. Besides, the TGI in assay [7], in assay [8], in assay [9] and in assay [10] was > 100 µM in each case.

As for `COC1=CC2CCN3Cc4cc5c(cc4C(C1O)C23)OCC5` (stereo not drawn), the GI50 in assay [1] is 2.56 µM; in [2] it was 1.33 µM; in [3] it was 3.36 µM; in assay [4] it was 1.33 µM; in assay [5], 2.49 µM; in [7], 2.47 µM. Also, the GI50 in assay [8] was 2.74 µM; in assay [9], 3.88 µM; in assay [10] it was 14.4 µM. For the same molecule, the TGI in assay [1] was 21.2 µM; in assay [2], 22.8 µM; in assay [3] it was > 100 µM; in assay [4], 6.51 µM; in assay [5], 8.36 µM; in assay [6], > 100 µM. The TGI was > 61.9 µM in assay [7], 16.7 µM in assay [8], 24.4 µM in assay [9] and > 43 µM in assay [10].

`O=C1/C(=C/c2ccccc2[N+](=O)[O-])COc2ccc(O)c(O)c21`: the GI50 in [1] is 0.807 µM; in assay [2] it was 0.857 µM; in assay [3] it was 0.409 µM; in assay [4] it was 0.918 µM; in assay [5] it was 0.607 µM; in assay [6] it was 0.476 µM. For the same molecule, the GI50 is 0.805 µM in [7], 0.357 µM in assay [8], 3.26 µM in assay [9] and 2.18 µM in assay [10]. Moreover, the TGI in [1] was 2.36 µM; in [2] it was 2.29 µM; in assay [3] it was 3.02 µM; in [4], 4.72 µM; in assay [5] it was 1.99 µM; in assay [6], > 100 µM. Also, the TGI in assay [7] is 4.74 µM; in assay [8], 1.46 µM; in assay [9], 11.1 µM; in assay [10] it was 5.99 µM.

For the molecule `CC(C)[C@H](C(=O)O[C@@H]1/C=C/C(=O)O[C@@H](C)CCC/C=C/[C@@H]2C[C@H](O)C[C@H]21)N(C)C`, the GI50 is 31.5 µM in assay [1]; 8.7 µM in assay [2]; 6.65 µM in assay [3]; 31 µM in assay [4]; 19.4 µM in assay [5]; 14.9 µM in [6]. Also, the GI50 in [7] was 6.15 µM; in [8], 3.29 µM; in assay [9] it was 4.85 µM; in assay [10], 17 µM. Further, the TGI in assay [1] was > 100 µM; in assay [2], > 94.5 µM; in assay [3] it was 28.1 µM; in assay [4], > 100 µM; in assay [5] it was > 73.8 µM; in [6], 33.8 µM. The TGI in [7] is 21.1 µM; in assay [8], 15.6 µM; in assay [9], 25.1 µM; in assay [10] it was > 63.2 µM.

Take `CC[C@@]1(O)C(=O)NCc2c1cc1n(c2=O)Cc2cc3c(NC(C)=O)cccc3nc2-1`: the GI50 in [1], in assay [2], in [3], in assay [4], in [5] and in assay [6] was > 100 µM throughout. Also, the GI50 in assay [7], in assay [8], in assay [9] and in assay [10] was > 100 µM each time. In addition, the TGI in assay [1], in assay [2], in assay [3], in assay [4], in [5] and in assay [6] was > 100 µM each time. Besides, the TGI in assay [7], in [8], in assay [9] and in assay [10] was > 100 µM in each case.

Consider `O=C1NC(=O)C(c2c[nH]c3ccccc23)=C1c1ccccc1`, for which the GI50 in assay [1], in [2], in assay [3], in assay [4], in assay [5] and in assay [6] was > 25 µM in each case. Moreover, the GI50 in [7], in assay [8], in assay [9] and in assay [10] was > 25 µM in each case. In addition, the TGI in assay [1], in [2], in [3], in assay [4], in assay [5] and in assay [6] was > 25 µM throughout. Further, the TGI in assay [7], in assay [8], in assay [9] and in [10] was > 25 µM throughout.

Consider `CCOC(=O)c1cc(-c2ccccc2)[nH]c1N/N=C/c1c(Cl)cccc1Cl`, for which the GI50 is 1.59 µM in [1]; 13.4 µM in [2]; 0.45 µM in assay [3]; > 21.2 µM in assay [4]; 0.409 µM in assay [5]; 0.413 µM in [6]. The GI50 in [7] was 1.39 µM; in [8], 0.47 µM; in assay [9] it was 0.339 µM; in assay [10], 0.961 µM. The TGI in [1] was 11.7 µM; in assay [2] it was > 100 µM; in assay [3], > 100 µM; in assay [4], > 100 µM; in assay [5], 31.1 µM; in [6], 10.2 µM. The TGI in assay [7] is 49 µM; in [8], 9.51 µM; in assay [9] it was 10.3 µM; in [10], 87.5 µM.

Source of the values: PubChem BioAssay (NCI).
